Measured values reported in PubChem BioAssay AID256 (DTP/NCI, 2004).
Where “and” joins values, the source holds several entries; their conditions need not be identical. Equal entries are not always repeated. Toxic doses and inconclusive results are not listed. The calls were made as follows: active = survival T/C of 150% or more; inactive = T/C below 125% in these data.

Tested on: CD2F1 mice, L1210 leukemia ip, survival T/C
Test: NCI In Vivo Anticancer Drug Screen. Data for tumor model L1210 Leukemia (intraperitoneal) in CD2F1 (CDF1) mice
Details: higher = longer survival
In short: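 Vehicle-treated tumor-bearing mice served as controls (C) for compound-treated mice (T). Reported figure is T divided by C.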

[1] = endpoint: mean survival time, dose: 100.0 mg/kg/injection, schedule: Q01DX001 (ip), vehicle: saline with Tween-80
[2] = endpoint: mean survival time, dose: 100.0 mg/kg/injection, schedule: Q01DX009 (ip), vehicle: saline with Tween-80
[3] = endpoint: mean survival time, dose: 100.0 mg/kg/injection, schedule: Q04DX003 (ip), vehicle: saline with Tween-80
[4] = endpoint: mean survival time, dose: 200.0 mg/kg/injection, schedule: Q01DX009 (ip), vehicle: saline with Tween-80
[5] = endpoint: mean survival time, dose: 200.0 mg/kg/injection, schedule: Q04DX003 (ip), vehicle: saline with Tween-80
[6] = endpoint: mean survival time, dose: 400.0 mg/kg/injection, schedule: Q04DX003 (ip), vehicle: saline with Tween-80
[7] = endpoint: mean survival time, dose: 100.0 mg/kg/injection, schedule: Q01DX001 (ip), vehicle: saline
[8] = endpoint: mean survival time, dose: 100.0 mg/kg/injection, schedule: Q04DX003 (ip), vehicle: saline
[9] = endpoint: mean survival time, dose: 200.0 mg/kg/injection, schedule: Q04DX003 (ip), vehicle: saline
[10] = endpoint: mean survival time, dose: 400.0 mg/kg/injection, schedule: Q04DX003 (ip), vehicle: saline
[11] = endpoint: mean survival time, dose: 200.0 mg/kg/injection, schedule: Q01DX001 (ip), vehicle: saline with Tween-80
[12] = endpoint: mean survival time, dose: 400.0 mg/kg/injection, schedule: Q01DX001 (ip), vehicle: saline with Tween-80
[13] = endpoint: mean survival time, dose: 50.0 mg/kg/injection, schedule: Q01DX009 (ip), vehicle: Klucel (hydroxypropylcellulose) (HPC)
[14] = endpoint: mean survival time, dose: 100.0 mg/kg/injection, schedule: Q01DX009 (ip), vehicle: Klucel (hydroxypropylcellulose) (HPC)
[15] = endpoint: mean survival time, dose: 200.0 mg/kg/injection, schedule: Q01DX009 (ip), vehicle: Klucel (hydroxypropylcellulose) (HPC)
[16] = endpoint: mean survival time, dose: 75.0 mg/kg/injection, schedule: Q01DX001 (ip), vehicle: saline

Measured: T/C

O=C(Nc1ccc(O)cc1)c1c(O)[nH]c(=S)[nH]c1=O
inactive: endpoint: median survival time, dose: 12.5 mg/kg/injection, schedule: Q01DX009 (ip), vehicle: saline with Tween-80 107 % of control | endpoint: median survival time, dose: 25.0 mg/kg/injection, schedule: Q01DX009 (ip), vehicle: saline with Tween-80 106 % of control | endpoint: median survival time, dose: 50.0 mg/kg/injection, schedule: Q01DX009 (ip), vehicle: saline with Tween-80 106 % of control | endpoint: median survival time, dose: 100.0 mg/kg/injection, schedule: Q01DX009 (ip), vehicle: saline with Tween-80 100 % of control

CC(c1ccccc1)n1cncc1CN1CCOCC1 (centres undefined)
inactive: endpoint: mean survival time, dose: 12.5 mg/kg/injection, schedule: Q04DX002 (ip), vehicle: saline with Tween-80 91 % of control | endpoint: mean survival time, dose: 25.0 mg/kg/injection, schedule: Q01DX001 (ip), vehicle: saline with Tween-80 102 % of control | endpoint: mean survival time, dose: 25.0 mg/kg/injection, schedule: Q04DX002 (ip), vehicle: saline with Tween-80 98 % of control | endpoint: mean survival time, dose: 50.0 mg/kg/injection, schedule: Q01DX001 (ip), vehicle: saline with Tween-80 102 % of control | endpoint: mean survival time, dose: 50.0 mg/kg/injection, schedule: Q04DX002 (ip), vehicle: saline with Tween-80 98 % of control | [1] 95 % of control and 98 % of control | endpoint: mean survival time, dose: 100.0 mg/kg/injection, schedule: Q04DX002 (ip), vehicle: saline with Tween-80 95 % of control

O=S(=O)(Cl)c1ccc(-c2ccc(S(=O)(=O)Cl)cc2)cc1
inactive: endpoint: mean survival time, dose: 100.0 mg/kg/injection, schedule: Q04DX003 (ip), vehicle: Klucel (hydroxypropylcellulose) (HPC) 95 % of control | endpoint: mean survival time, dose: 200.0 mg/kg/injection, schedule: Q04DX003 (ip), vehicle: Klucel (hydroxypropylcellulose) (HPC) 106 % of control | endpoint: mean survival time, dose: 400.0 mg/kg/injection, schedule: Q04DX003 (ip), vehicle: Klucel (hydroxypropylcellulose) (HPC) 103 % of control

COC(=O)c1cc(C)ccc1O
inactive: [2] 96 % of control | [3] 90 % of control | [4] 101 % of control | [5] 93 % of control | [6] 100 % of control

O=S(O)c1ccccc1
inactive: [7] 92 % of control | endpoint: mean survival time, dose: 200.0 mg/kg/injection, schedule: Q01DX001 (ip), vehicle: saline 94 % of control | endpoint: mean survival time, dose: 400.0 mg/kg/injection, schedule: Q01DX001 (ip), vehicle: saline 110 % of control

CC1(C)N=C(N)N=C(N)N1c1cccc(OCCCC#N)c1
inactive: endpoint: mean survival time, dose: 25.0 mg/kg/injection, schedule: Q01DX001 (ip), vehicle: saline 88 % of control | endpoint: mean survival time, dose: 50.0 mg/kg/injection, schedule: Q01DX001 (ip), vehicle: saline 106 % of control | [7] 101 % of control

CCOCCN1CCN(CCCN2c3ccccc3Sc3ccc(C(F)(F)F)cc32)CC1
inactive: endpoint: mean survival time, dose: 1.75 mg/kg/injection, schedule: Q01DX001 (ip), vehicle: water 103 % of control | endpoint: mean survival time, dose: 3.5 mg/kg/injection, schedule: Q01DX001 (ip), vehicle: water 106 % of control | endpoint: mean survival time, dose: 7.0 mg/kg/injection, schedule: Q01DX001 (ip), vehicle: water 105 % of control | endpoint: mean survival time, dose: 9.9 mg/kg/injection, schedule: Q01DX001 (ip), vehicle: water 102 % of control | endpoint: mean survival time, dose: 15.0 mg/kg/injection, schedule: Q01DX001 (ip), vehicle: water 98 % of control | endpoint: mean survival time, dose: 22.0 mg/kg/injection, schedule: Q01DX001 (ip), vehicle: water 106 % of control | endpoint: mean survival time, dose: 37.5 mg/kg/injection, schedule: Q04DX003 (ip), vehicle: saline 122 % of control

CCC1(CC)COC(C)(C(=O)O)OC1
inactive: [8] 111 % of control | [9] 96 % of control | [10] 100 % of control

N=C(N)SCCSC(=N)N
inactive: endpoint: mean survival time, dose: 25.0 mg/kg/injection, schedule: Q01DX009 (ip), vehicle: saline 92 % of control | endpoint: mean survival time, dose: 50.0 mg/kg/injection, schedule: Q01DX009 (ip), vehicle: saline 94 % of control | endpoint: mean survival time, dose: 100.0 mg/kg/injection, schedule: Q01DX009 (ip), vehicle: saline 94 % of control | [8] 100 % of control | [9] 105 % of control

CCOC(=O)C1(C(=O)OCC)CCC2Nc3ccccc3C(=O)N21 (centres undefined)
inactive: endpoint: mean survival time, dose: 100.0 mg/kg/injection, schedule: Q01DX001 (ip), vehicle: Klucel (hydroxypropylcellulose) (HPC) 108 % of control | endpoint: mean survival time, dose: 200.0 mg/kg/injection, schedule: Q01DX001 (ip), vehicle: Klucel (hydroxypropylcellulose) (HPC) 108 % of control | endpoint: mean survival time, dose: 400.0 mg/kg/injection, schedule: Q01DX001 (ip), vehicle: Klucel (hydroxypropylcellulose) (HPC) 96 % of control

O=NN(CC(=O)N/N=C\c1ccc(Cl)cc1)CC(=O)N/N=C/c1ccc(Cl)cc1
inactive: [2] 91 % of control | [4] 94 % of control | endpoint: mean survival time, dose: 400.0 mg/kg/injection, schedule: Q01DX009 (ip), vehicle: saline with Tween-80 96 % of control

CC(=O)OCC(C)CCC1OC2CC3C4CCC5CC(OC(C)=O)CCC5(C)C4CCC3(C)C2C1C (centres undefined)
inactive: [1] 100 % of control | [11] 101 % of control | [12] 94 % of control

CCOC(=O)/C(N=Nc1ccc(O)cc1)=C(\C)O
inactive: [13] 101 % of control | [14] 93 % of control | endpoint: mean survival time, dose: 100.0 mg/kg/injection, schedule: Q04DX003 (ip), vehicle: acetone 95 % of control | [15] 96 % of control | endpoint: mean survival time, dose: 200.0 mg/kg/injection, schedule: Q04DX003 (ip), vehicle: acetone 98 % of control

OC1C=CC2CC1C2 (centres undefined)
inactive: [3] 95 % of control | [5] 98 % of control | [6] 98 % of control

CCCC1NNC(CCC)NN1 (centres undefined)
inactive: [16] 102 % of control

CS(=O)(=O)OCCn1c(=O)n(CCOS(C)(=O)=O)c(=O)n(CCOS(C)(=O)=O)c1=O
inactive: [3] 102 % of control | [5] 98 % of control | [6] 93 % of control

C=C1C(=O)OCC2CCCCC12C (centres undefined)
inactive: endpoint: mean survival time, dose: 1.25 mg/kg/injection, schedule: Q01DX009 (ip), vehicle: saline with Tween-80 98 % of control | endpoint: mean survival time, dose: 2.5 mg/kg/injection, schedule: Q01DX009 (ip), vehicle: saline with Tween-80 101 % of control | endpoint: mean survival time, dose: 5.0 mg/kg/injection, schedule: Q01DX009 (ip), vehicle: saline with Tween-80 101 % of control | endpoint: mean survival time, dose: 10.0 mg/kg/injection, schedule: Q01DX009 (ip), vehicle: saline with Tween-80 98 % of control

OCC(O)C(O)C(O)C(O)/C=N\Nc1ccccc1 (centres undefined)
inactive: [1] 100 % of control | [11] 100 % of control | [12] 95 % of control

CNC(=O)NC1CCC(C)CC1 (centres undefined)
inactive: [8] 98 % of control | [9] 96 % of control | [10] 96 % of control

O=S(=O)(SC(S(=O)(=O)c1ccccc1)S(=O)(=O)c1ccccc1)c1ccccc1
inactive: endpoint: mean survival time, dose: 12.5 mg/kg/injection, schedule: Q01DX009 (ip), vehicle: Klucel (hydroxypropylcellulose) (HPC) 94 % of control and 105 % of control | endpoint: mean survival time, dose: 25.0 mg/kg/injection, schedule: Q01DX009 (ip), vehicle: Klucel (hydroxypropylcellulose) (HPC) 97 % of control and 110 % of control | [13] 98 % of control and 102 % of control | [14] 96 % of control | [15] 92 % of control and 104 % of control | endpoint: mean survival time, dose: 400.0 mg/kg/injection, schedule: Q01DX009 (ip), vehicle: Klucel (hydroxypropylcellulose) (HPC) 113 % of control and 94 % of control | endpoint: median survival time, dose: 100.0 mg/kg/injection, schedule: Q01DX009 (ip), vehicle: Klucel (hydroxypropylcellulose) (HPC) 103 % of control | endpoint: median survival time, dose: 200.0 mg/kg/injection, schedule: Q01DX009 (ip), vehicle: Klucel (hydroxypropylcellulose) (HPC) 102 % of control | endpoint: median survival time, dose: 400.0 mg/kg/injection, schedule: Q01DX009 (ip), vehicle: Klucel (hydroxypropylcellulose) (HPC) 102 % of control | endpoint: median survival time, dose: 800.0 mg/kg/injection, schedule: Q01DX009 (ip), vehicle: Klucel (hydroxypropylcellulose) (HPC) 92 % of control

CC(C)CCNCC(C)(C)OC(=O)c1ccc([N+](=O)[O-])cc1
inactive: [16] 97 % of control | endpoint: mean survival time, dose: 150.0 mg/kg/injection, schedule: Q01DX001 (ip), vehicle: saline 101 % of control | endpoint: mean survival time, dose: 300.0 mg/kg/injection, schedule: Q01DX001 (ip), vehicle: saline 102 % of control

Cn1c(=O)[nH]c2c(nc(-c3ccc(Cl)cc3)n2C)c1=O
inactive: endpoint: mean survival time, dose: 12.5 mg/kg/injection, schedule: Q01DX005 (ip), vehicle: other 91 % of control | endpoint: mean survival time, dose: 25.0 mg/kg/injection, schedule: Q01DX005 (ip), vehicle: other 100 % of control | endpoint: mean survival time, dose: 50.0 mg/kg/injection, schedule: Q01DX005 (ip), vehicle: other 95 % of control | endpoint: mean survival time, dose: 100.0 mg/kg/injection, schedule: Q01DX005 (ip), vehicle: other 95 % of control | endpoint: mean survival time, dose: 200.0 mg/kg/injection, schedule: Q01DX005 (ip), vehicle: other 100 % of control
